Source: paper PMC6235670, “An mTOR Signaling Modulator Suppressed Heterotopic Ossification of Fibrodysplasia Ossificans Progressiva” (Stem Cell Reports, 2018)

Columns and labels:
[1] = system: FOP-iMSCs; experiment: 2D chondrogenic induction of FOP-iMSCs with activin A (GAG, Alcian blue); format: cell-based, human
[2] = system: BMP-7-induced HO model mice (C57BL/6); experiment: BMP-7-induced HO model mice
Excerpt: (§1) MTOR s604 […]tt […]at […]
(§2) For X- ray images, mice were anesthetized with isoflurane (5% for induction, 2-3% for maintenance, Abbvie), immobilized and X-rayed using µFX-1000 (Fujifilm) or DX-50 (Faxitron Bioptics). µCT images were scanned using X-ray CT systems (inspeXio SMX-100CT, Shimadzu) and analyzed with TRI/3D-BON software (Ratoc System Engineering) according to the manufacturer's instructions. Four weeks after injection, the injected sites were harvested, fixed with 4% paraformaldehyde for 24 h, embedded in paraffin, and sectioned and stained […]
BMP-7-induced HO model mice. BMP -7 (2 µ g/mouse) was injected into the right gastrocnemius muscle of C57BL/6NJcl mice (6-8 weeks, male, CLEA Japan), and compounds were administered once a day, five times a week (intraperitoneal administration). Mice were analyzed 2 weeks after injection. […]

[3] = system: NOD/SCID mice transplanted with FOP-iMSCs
Excerpt: as §1
as §2, with “instructions.” for “instructions. Four weeks after injection, the injected sites were harvested, fixed with 4% paraformaldehyde for 24 h, embedded in paraffin, and sectioned and stained”
Activin-A-induced HO model transplanted with FOP-iMSCs. FOP- (right leg) and resFOP-iMSCs (left leg) (4 x 10^6 cells, respectively) were transplanted into the gastrocnemius muscle of NOD/ShiJic-scid Jcl (NOD/SCID) mice (8 weeks, male, CLEA Japan) with C3H -DoxOn-hINHBA (5 x 10^5 cells), which can continuously expose Activin-A to the transplanted iMSCs in vivo ( Hino et al., 2015) . In the Dox-induced group, 1 mg/mL Dox (Sigma-Aldrich) was administered via drinking water with 10 mg/mL sucrose (Nacalai Tesque) for two weeks after transplantation. Compounds were intraperitoneally administered once a day, five times a week. Eight weeks after transplantation, the transplanted cells were harvested , fixed with 4% paraformaldehyde for 24 h, embedded in paraffin, and sectioned and stained with HE, von Kossa, Safranin O, human specific anti-Vimentin antibody and Collagen I antibody as previously described (Hino et al., 2015; Umeda et al., 2012; […]

[4] = system: mTOR signaling (p-S6); experiment: p-S6 western blotting during chondrogenic induction of FOP-iMSCs with activin A; format: cell-based, human; settings: 1 μM
Procedure: Western blotting. SDS- PAGE and blotting with whole-cell lysates were performed by standard procedures.
Protein bands were detected with ECL Prime Western Blotting Detection Reagent (GE Healthcare) and visualized using BIO-RAD Molecular Imager® Chemi-DocTM XRS+ with Image LabTM software (Bio-Rad).
All data (relative intensity) were corrected by β-actin.
Antibodies for western blotting and immunostaining.
N ame Company Cat. No Concentration
Human Activin RIA/ALK-2 Antibody R&D Systems) AF637 1:100
Anti-human Vimentin antibody Abcam ab16700 1:40
Collagen I Antibody Novus NB600- 1:100
Anti-rabbit IgG, HRP-linked Antibody Cell Signaling #7074 1:10000 […]
2nd Goat anti-Rabbit IgG (H+L) Secondary Antibody, Invitrogen A-11008 1:100 antibody Alexa Fluor® 488 conjugate
Goat anti-Rabbit IgG (H+L) Secondary Antibody, Invitrogen A-21428 1:500

[5] = system: TGF-β signaling (CAGA-Luc); experiment: CAGA-Luc reporter assay in FOP-iMSCs; format: cell-based, human; settings: activin A and compounds for 3 hr
Procedure: (§3) FOP-iMSCs transiently transfected with BRE-Luc (A) or CAGA-Luc (B) with CMV-Renilla were stimulated with activin A and compounds for 16 hr (A) or 3 hr (B). […] One day after siRNA transfection, chondrogenic induction with activin A was initiated, and after 7 days the cells were harvested. […] FOP-iMSCs cultured with 10% FBS were treated with 100 nM rapamycin (Rapa) or TAK 165 (TAK) for 2 hr, and the cells were harvested. […] 1 μM TAK, 1 μM CP (CP-724714, another selective ERBB2 inhibitor), or 10 nM Rapa were applied in the experiments.

[6] = system: healthy control iPSC (414C2)-derived iMSCs; experiment: Wound healing assay
[7] = system: BMP signaling (BRE-Luc); experiment: BRE-Luc reporter assay in FOP-iMSCs; format: cell-based, human; settings: activin A and compounds for 16 hr
Procedure: as §3

## FC(F)(F)c1ccc(/C=C/c2nc(COc3ccc(CCCCn4ccnn4)cc3)co2)cc1 [TAK 165, mubritinib]
[1]; 1 μM, activin A, 7 days
  inhibition of glycosaminoglycan (GAG) production: potent inhibition
[1]; activin A, 7 days
  suppression of chondrogenic induction (GAG), dose dependence: dose-dependent
[1]; compared with other HTS hits
  Alcian blue staining: obviously different effects
[2]; i.p. for 2 weeks, n=5
  body weight change compared to vehicle group: No significant differences
[2]; i.p. once daily 5 times a week for 2 weeks
  BMP-7-induced HO (heterotopic bone volume): suppressed
[2]; i.p. once daily 5 times a week for 2 weeks, N = 5
  # of HO (> 20 mm3): number of mice harboring HO: 1/5
[3]; 5 mg/kg i.p.
  anti-human-specific vimentin-positive cells (survival of transplanted cells): large number
  body weight change compared with vehicle group: No significant differences
  hypertrophic chondrocytes and von Kossa- and COL1-positive bone regions: fewer
[3]; 5 mg/kg i.p. once daily, five times a week, 8 weeks after transplantation
  HO derived from FOP-iMSCs (heterotopic bone volume): significantly suppressed
[4]; 24 hr
  p-S6 after 24-hr stimulation: no effects
[4]; 7 days
  p-S6 after 7 days of stimulation: dramatically decreased
[5]
  CAGA-Luc (TGF-β-responsive luciferase reporter): did not affect
[6]; 10 nM rapamycin or 1 µM TAK165, 24 h
  Relative cell migration (wound healing assay) vs DMSO: n.s.
[6]; 1 µM, 24 h
  wound healing in vitro: did not impair
[7]
  BRE-Luc (BMP-specific luciferase reporter): did not affect
